Activity calls are given as the source filed them.
Assays:
[1] = target: Alkaline phosphatase, placental type (Homo sapiens, UniProt P05187); test: PLAP enzyme inhibitors, confirmation, biochemical, luminescence (AID 1512); format: functional
[2] = target: Glyceraldehyde-3-phosphate dehydrogenase (Homo sapiens, UniProt P04406)
[3] = target: T1, Alkaline phosphatase, tissue-nonspecific isozyme (Homo sapiens, UniProt P05186); test: human TNAP enzyme inhibitors, SAR follow-up, biochemical, luminescent, dose response (AID 1056)
T1 sequence (P05186 whole entry): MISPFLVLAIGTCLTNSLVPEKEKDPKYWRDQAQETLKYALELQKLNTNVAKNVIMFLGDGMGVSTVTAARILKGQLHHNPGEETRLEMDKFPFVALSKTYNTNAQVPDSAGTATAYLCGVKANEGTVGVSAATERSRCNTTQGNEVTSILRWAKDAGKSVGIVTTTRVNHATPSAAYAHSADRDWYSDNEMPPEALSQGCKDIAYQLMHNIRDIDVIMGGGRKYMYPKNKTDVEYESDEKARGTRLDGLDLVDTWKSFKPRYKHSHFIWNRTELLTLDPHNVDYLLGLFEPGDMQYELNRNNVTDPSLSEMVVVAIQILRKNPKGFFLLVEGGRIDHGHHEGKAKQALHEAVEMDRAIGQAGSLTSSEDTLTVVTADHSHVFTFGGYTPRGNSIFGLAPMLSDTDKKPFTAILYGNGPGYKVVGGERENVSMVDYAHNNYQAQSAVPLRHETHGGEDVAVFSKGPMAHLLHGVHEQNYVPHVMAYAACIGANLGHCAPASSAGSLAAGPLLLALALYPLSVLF

Cysteine protease ATG4B = target: T2, Cysteine protease ATG4B (Homo sapiens, UniProt Q9Y4P1); format: functional;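 note: Fluorescence-based dose-response confirmation assay measuring inhibition of ATG4B activity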
T2 sequence (Q9Y4P1 whole entry): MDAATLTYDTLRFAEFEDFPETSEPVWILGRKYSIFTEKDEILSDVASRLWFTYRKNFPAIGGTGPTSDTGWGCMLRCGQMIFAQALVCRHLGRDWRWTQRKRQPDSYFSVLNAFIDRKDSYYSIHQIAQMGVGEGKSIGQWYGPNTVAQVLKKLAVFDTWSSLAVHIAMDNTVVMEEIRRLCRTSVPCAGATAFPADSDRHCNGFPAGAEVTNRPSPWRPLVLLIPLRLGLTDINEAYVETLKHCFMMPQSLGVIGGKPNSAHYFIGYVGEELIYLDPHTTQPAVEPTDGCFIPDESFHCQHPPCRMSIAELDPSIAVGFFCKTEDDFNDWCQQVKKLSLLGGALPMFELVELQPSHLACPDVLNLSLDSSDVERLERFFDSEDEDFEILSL

[4] = THP-1 cell cytotoxicity, dose response, cytotoxicity control for Vif-APOBEC3G degradation inhibitor project, THP-1 cells (AID 1117359); format: functional; settings: Human immunodeficiency virus 1, THP-1
Nonstructural protein 1 = Nonstructural protein 1 (Influenza A virus, UniProt Q194T2); format: functional, Influenza A virus (A/California/07/2009(H1N1))
Troponin, cardiac muscle = Troponin, cardiac muscle (Homo sapiens, UniProt P19429+P45379+P63316); test: inhibitors of cardiac thin filament calcium sensitivity, dose response, biochemical, fluorescence, cardiac regulated thin filaments, triplicate IC50 (AID 504742); format: protein-complex assay
Phospholipase A2 = Phospholipase A2 (Homo sapiens, UniProt P04054); format: functional;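 note: confirmatory dose-response counterscreen on phospholipase A2, testing hits that came from an ultra-high-throughput screen for ATG4B inhibitors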
[5] = target: Dual specificity tyrosine-phosphorylation-regulated kinase 1A (Rattus norvegicus, UniProt Q63470); format: biochemical, Homo sapiens
[6] = HeLa cell cytotoxicity, dose response, cytotoxicity control for MgcRacGAP inhibitor project (AID 624300); format: functional
[7] = target: T3, Rac GTPase-activating protein 1 (Homo sapiens, UniProt Q9H0H5); test: MgcRacGAP GTPase-activating activity inhibitors, confirmation, biochemical, ADP Hunter fluorescence, primary and confirmatory (AID 624330); format: functional
T3 sequence (Q9H0H5 whole entry): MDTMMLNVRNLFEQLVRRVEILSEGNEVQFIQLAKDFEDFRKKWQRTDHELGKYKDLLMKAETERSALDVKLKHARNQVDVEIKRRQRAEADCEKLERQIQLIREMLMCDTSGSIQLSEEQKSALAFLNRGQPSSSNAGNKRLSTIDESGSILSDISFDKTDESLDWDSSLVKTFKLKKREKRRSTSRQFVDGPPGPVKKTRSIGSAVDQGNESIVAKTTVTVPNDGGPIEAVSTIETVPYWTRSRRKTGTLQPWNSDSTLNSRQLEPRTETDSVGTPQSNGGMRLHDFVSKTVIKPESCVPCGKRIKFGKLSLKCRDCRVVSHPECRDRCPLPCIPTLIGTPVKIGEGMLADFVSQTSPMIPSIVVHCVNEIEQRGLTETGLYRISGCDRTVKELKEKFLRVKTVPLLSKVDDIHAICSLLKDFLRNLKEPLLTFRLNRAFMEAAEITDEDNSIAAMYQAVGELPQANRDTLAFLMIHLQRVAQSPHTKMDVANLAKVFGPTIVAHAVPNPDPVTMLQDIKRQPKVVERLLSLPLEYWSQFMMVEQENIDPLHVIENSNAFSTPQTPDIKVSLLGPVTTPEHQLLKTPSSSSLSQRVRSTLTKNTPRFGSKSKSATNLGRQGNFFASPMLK

[8] = target: T4, DNA repair protein RAD52 homolog (Homo sapiens, UniProt P43351); format: functional, biochemical
T4 sequence (P43351 whole entry): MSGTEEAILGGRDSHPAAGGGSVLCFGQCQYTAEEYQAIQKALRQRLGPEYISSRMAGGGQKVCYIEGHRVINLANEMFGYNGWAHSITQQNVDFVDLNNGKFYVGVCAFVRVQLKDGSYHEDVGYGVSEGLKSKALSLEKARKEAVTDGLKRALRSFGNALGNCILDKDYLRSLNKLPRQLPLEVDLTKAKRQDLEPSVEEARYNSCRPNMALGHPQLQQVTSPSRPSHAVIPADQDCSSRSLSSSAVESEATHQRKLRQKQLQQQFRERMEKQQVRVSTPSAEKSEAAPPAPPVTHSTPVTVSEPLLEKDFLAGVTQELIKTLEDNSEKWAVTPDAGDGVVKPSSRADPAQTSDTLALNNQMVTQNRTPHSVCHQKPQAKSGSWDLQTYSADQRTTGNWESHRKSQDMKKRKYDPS

[9] = target: Glutathione-S-transferase (Schistosoma japonicum, UniProt Q26513); test: biotin-GST/anti-GST TR-FRET signal inhibitors, dose response, artefact control for Vif-APOBEC3G degradation inhibitor project, biochemical (AID 1117362); format: functional
[10] = target: Delta-type opioid receptor (Homo sapiens, UniProt P41143); test: SAR Analysis of Antagonists of the DOR Receptor using an Image-Based Assay - Set 3. [Related pubchem assays (depositor defined):AID1777, AID1785]; format: functional;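 note: U2OS cells expressing DOR1 and beta-arrestin GFP stimulated with 100 nM SNC80; imaging of GFP-tagged beta-arrestin moving into spots after receptor activation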
[11] = target: T5, Kappa-type opioid receptor (Homo sapiens, UniProt P41145); test: SAR analysis of Antagonists of the Kappa Opioid Receptor (KOR) using an Image-Based Assay - Set 4. [Related pubchem assays (depositor defined):AID1777, AID1785]; format: functional
[12] = target: T5, Kappa-type opioid receptor; test: SAR analysis of small molecule antagonists of the kappa opioid receptor via a luminescent beta-arrestin assay - Set 3. [Related pubchem assays (depositor defined):AID1777, AID1778, AID1785, AID1786, AID1966, AID2133, AID2136, AID2285, AID2495]; format: functional
[13] = target: T5, Kappa-type opioid receptor; test: SAR analysis of Antagonists of the Kappa Opioid Receptor (KOR) using an Image-Based Assay - Set 3. [Related pubchem assays (depositor defined):AID1777, AID1785]; format: functional
[14] = target: T5, Kappa-type opioid receptor; test: SAR analysis of small molecule antagonists of the kappa opioid receptor via a luminescent beta-arrestin assay - Set 6. [Related pubchem assays (depositor defined):AID1777, AID1778, AID1785, AID1786, AID1966, AID2133, AID2136, AID2285]; format: functional
Mu-type opioid receptor = Mu-type opioid receptor (Homo sapiens, UniProt P35372); test: SAR Analysis of Antagonists of the MOR Receptor using an Image-Based Assay - Set 3. [Related pubchem assays (depositor defined):AID1777, AID1785, AID1786, AID1966, AID2133, AID2136, AID2284, AID2285, AID2420]; format: functional
[15] = target: T6, Short transient receptor potential channel 4 (Mus musculus, UniProt Q9QUQ5); test: TRPC4 positive allosteric modulators, dose response, cell-based, HEK293 TRPC4/mu-opioid, Fluo-4 calcium, EC20 DAMGO (AID 434941); format: functional
T6 sequence (Q9QUQ5 whole entry): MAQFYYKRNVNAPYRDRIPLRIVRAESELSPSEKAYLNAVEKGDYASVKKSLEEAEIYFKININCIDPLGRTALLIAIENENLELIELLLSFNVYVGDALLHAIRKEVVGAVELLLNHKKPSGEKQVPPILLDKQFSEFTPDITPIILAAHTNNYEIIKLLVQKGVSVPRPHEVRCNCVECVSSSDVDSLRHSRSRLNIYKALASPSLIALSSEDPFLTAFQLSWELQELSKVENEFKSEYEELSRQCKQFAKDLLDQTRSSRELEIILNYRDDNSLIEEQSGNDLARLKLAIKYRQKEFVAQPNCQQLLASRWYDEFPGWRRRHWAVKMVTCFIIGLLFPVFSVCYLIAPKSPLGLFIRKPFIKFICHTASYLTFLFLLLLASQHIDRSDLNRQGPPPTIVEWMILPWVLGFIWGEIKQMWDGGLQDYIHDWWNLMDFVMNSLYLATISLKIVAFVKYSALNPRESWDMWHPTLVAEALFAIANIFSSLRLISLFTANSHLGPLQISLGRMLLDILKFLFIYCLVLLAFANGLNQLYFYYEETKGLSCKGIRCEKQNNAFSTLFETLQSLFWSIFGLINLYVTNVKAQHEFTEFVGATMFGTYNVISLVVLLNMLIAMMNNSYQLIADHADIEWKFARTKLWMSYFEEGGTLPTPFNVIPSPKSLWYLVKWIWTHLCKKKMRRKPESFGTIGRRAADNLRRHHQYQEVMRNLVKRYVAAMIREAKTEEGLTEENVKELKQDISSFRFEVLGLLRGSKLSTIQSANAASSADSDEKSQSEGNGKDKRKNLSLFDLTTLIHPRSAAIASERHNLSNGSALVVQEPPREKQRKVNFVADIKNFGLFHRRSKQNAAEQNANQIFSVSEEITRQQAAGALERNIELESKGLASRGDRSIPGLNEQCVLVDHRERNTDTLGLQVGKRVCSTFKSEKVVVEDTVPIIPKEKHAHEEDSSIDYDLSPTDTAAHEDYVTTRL

Integrin alpha-4 = Integrin alpha-4 (Homo sapiens, UniProt P13612); test: VLA-4 integrin allosteric ligands, SAR follow-up, cell-based, LIBS antibody binding, flow cytometry (AID 488791); format: functional
Hexokinase = Hexokinase (Trypanosoma brucei, UniProt Q38C41); test: Confirmation assay for inhibitors of Trypanosoma brucei hexokinase 1-Analogue-first series. [Related pubchem assays (depositor defined):AID1430, AID1632, AID2516, AID2560, AID2579, AID2600, AID449725, AID492951]; format: functional
[16] = Luminescence Cell-Based Dose Response HTS to Identify Activators of Luciferase Translation or Activity in H4 […] Cells. [Related pubchem assays: 1829 (Project Summary), 1814 (Primary HTS)]; format: functional
H4 = test: Luminescence Cell-Based Dose Response HTS to Identify Activators of 5'UTR Stem-Loop Driven Prion Protein mRNA Translation in H4 Neuroglioblastoma Cells. [Related pubchem assays: 1829 (Project Summary), 1814 (Primary HTS)]; format: functional; settings: Homo sapiens
[17] = target: E3 ubiquitin-protein ligase Mdm2/Protein Mdm4 (Homo sapiens, UniProt O15151+Q00987); test: Mdm2-MdmX interaction inhibitors, dose response, luminescence detection (AID 504593); format: functional
[18] = Luminescence Cell-Based Dose Confirmation HTS to Identify Activators of 5'UTR Stem-Loop Driven Alpha-Synuclein mRNA Translation in H4 Neuroglioblastoma Cells. [Related pubchem assays: 1829 (Project Summary), 1814 (Primary HTS)]; format: functional

T5 sequence (P41145 whole entry): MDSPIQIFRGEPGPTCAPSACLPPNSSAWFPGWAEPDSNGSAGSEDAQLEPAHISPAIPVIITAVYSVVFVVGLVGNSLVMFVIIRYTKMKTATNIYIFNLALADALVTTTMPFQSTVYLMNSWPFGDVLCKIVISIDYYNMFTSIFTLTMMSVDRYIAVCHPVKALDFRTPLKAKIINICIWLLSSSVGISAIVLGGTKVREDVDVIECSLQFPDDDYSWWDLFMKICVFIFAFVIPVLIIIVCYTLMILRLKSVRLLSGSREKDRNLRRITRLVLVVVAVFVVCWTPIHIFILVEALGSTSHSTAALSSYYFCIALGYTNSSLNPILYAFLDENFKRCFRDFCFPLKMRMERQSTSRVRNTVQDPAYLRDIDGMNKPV
Chain of Delta-type opioid receptor (P41143 whole entry): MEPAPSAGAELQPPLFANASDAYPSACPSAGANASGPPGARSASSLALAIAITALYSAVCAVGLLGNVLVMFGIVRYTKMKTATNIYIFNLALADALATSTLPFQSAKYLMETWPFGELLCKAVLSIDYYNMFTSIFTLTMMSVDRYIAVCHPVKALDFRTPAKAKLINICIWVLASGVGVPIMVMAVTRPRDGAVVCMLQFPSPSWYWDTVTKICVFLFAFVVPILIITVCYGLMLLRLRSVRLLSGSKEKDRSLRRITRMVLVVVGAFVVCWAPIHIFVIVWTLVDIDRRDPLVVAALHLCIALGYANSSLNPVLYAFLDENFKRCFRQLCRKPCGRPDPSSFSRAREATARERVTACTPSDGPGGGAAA
Chain of Glyceraldehyde-3-phosphate dehydrogenase (P04406 whole entry): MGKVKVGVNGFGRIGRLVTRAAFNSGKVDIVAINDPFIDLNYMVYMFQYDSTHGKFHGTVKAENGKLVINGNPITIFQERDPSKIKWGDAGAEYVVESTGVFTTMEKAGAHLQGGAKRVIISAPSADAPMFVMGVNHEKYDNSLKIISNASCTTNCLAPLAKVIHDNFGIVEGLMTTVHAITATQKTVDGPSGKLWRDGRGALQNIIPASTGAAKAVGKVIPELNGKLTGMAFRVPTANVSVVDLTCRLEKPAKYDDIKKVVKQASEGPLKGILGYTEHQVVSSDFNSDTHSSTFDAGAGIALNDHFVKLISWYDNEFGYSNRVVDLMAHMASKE
Chain of Alkaline phosphatase, placental type (P05187 whole entry): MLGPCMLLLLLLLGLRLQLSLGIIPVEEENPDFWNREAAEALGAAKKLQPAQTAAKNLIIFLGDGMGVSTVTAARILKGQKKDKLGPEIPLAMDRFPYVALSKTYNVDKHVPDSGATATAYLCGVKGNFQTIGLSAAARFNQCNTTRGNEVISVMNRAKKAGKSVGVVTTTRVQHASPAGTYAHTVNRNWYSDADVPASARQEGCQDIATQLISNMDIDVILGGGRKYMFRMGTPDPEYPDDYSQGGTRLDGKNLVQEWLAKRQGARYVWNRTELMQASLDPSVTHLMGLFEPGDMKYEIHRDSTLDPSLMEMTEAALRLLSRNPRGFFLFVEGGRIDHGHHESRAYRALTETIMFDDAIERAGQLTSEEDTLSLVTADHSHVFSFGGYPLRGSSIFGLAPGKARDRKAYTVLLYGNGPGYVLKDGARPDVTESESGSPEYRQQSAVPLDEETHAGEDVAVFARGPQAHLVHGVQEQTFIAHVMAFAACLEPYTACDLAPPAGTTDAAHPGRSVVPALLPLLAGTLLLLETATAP
Chain of Glutathione-S-transferase (Q26513 whole entry): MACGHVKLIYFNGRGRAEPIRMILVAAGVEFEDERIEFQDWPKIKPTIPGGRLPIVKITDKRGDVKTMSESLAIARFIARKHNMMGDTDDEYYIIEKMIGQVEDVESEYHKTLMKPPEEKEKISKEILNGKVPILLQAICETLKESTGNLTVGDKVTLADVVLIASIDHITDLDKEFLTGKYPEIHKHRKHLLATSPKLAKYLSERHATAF
Chain of E3 ubiquitin-protein ligase Mdm2/Protein Mdm4 (Q00987 whole entry): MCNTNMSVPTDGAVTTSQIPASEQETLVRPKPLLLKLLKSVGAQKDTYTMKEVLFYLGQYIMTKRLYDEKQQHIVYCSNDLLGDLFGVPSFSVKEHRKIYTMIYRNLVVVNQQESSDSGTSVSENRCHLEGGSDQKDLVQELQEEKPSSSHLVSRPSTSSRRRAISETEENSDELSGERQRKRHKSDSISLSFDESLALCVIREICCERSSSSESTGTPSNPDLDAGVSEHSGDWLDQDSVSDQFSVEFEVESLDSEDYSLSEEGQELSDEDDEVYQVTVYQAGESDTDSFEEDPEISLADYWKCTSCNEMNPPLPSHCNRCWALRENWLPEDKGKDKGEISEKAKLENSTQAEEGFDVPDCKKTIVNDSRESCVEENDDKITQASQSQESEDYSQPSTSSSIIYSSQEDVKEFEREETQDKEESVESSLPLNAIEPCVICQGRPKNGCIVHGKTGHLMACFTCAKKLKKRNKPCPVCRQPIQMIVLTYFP
Chain of E3 ubiquitin-protein ligase Mdm2/Protein Mdm4 (O15151 whole entry): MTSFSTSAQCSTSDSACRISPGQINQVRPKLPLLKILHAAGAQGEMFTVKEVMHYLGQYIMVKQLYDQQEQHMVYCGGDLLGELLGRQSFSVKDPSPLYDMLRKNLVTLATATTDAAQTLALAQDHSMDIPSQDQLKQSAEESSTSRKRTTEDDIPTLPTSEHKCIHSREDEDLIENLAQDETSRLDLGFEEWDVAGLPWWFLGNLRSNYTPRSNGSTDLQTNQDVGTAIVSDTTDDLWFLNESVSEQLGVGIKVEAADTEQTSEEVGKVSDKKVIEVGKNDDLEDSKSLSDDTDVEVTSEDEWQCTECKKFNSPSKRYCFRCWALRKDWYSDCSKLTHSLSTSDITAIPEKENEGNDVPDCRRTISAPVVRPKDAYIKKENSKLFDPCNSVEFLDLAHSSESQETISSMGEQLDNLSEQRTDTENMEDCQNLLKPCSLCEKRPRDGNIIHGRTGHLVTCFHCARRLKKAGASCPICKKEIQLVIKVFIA
Chain of Nonstructural protein 1 (Q194T2 whole entry): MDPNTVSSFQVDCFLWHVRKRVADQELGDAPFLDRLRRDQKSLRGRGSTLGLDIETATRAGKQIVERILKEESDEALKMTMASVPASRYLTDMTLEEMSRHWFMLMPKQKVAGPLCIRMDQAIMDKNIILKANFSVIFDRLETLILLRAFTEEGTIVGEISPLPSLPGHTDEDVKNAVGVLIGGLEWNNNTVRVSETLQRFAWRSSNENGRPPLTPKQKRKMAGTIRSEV
Chain of Mu-type opioid receptor (P35372 whole entry): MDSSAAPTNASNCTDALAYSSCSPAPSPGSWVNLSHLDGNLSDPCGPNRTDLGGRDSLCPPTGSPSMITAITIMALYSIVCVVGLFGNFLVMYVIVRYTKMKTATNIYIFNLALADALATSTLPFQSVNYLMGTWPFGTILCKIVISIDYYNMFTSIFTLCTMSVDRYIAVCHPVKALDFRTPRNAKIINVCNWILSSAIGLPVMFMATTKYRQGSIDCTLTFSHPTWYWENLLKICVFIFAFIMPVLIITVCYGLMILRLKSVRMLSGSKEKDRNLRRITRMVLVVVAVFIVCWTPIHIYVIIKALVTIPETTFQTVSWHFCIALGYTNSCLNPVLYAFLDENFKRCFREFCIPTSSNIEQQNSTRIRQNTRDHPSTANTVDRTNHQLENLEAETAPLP
Chain of Integrin alpha-4 (P13612 whole entry): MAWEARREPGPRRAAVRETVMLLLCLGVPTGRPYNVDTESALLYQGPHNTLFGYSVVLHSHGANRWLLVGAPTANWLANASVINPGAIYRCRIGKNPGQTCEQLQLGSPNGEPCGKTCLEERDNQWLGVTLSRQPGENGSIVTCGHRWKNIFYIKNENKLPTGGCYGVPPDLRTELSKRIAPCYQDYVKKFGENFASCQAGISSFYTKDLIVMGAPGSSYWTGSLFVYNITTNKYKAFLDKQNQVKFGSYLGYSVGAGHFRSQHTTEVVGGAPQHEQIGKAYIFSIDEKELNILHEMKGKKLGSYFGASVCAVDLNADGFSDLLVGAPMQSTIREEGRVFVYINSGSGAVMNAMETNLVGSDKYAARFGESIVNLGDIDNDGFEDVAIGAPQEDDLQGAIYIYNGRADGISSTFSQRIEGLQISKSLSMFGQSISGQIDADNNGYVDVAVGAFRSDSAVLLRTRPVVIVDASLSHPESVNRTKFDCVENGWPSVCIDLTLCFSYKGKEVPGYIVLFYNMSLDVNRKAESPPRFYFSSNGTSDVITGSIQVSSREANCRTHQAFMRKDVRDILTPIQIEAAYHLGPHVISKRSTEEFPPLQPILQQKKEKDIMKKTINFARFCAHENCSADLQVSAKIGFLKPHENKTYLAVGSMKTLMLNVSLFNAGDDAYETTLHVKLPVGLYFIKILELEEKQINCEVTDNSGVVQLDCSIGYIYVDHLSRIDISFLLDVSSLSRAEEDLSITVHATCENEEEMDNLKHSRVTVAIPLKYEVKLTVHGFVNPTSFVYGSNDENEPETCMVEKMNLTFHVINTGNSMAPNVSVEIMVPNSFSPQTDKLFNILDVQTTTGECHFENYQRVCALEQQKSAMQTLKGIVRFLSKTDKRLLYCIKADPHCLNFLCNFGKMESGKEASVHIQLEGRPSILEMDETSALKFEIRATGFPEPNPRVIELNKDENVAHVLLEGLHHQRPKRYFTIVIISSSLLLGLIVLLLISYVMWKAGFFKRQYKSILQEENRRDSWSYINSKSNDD
Chain of Phospholipase A2 (P04054 whole entry): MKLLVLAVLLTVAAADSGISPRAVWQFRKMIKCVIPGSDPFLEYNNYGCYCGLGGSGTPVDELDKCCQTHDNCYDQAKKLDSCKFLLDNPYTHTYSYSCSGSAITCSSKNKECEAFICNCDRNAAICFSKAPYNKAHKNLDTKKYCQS

NNC(=O)c1cc(-c2ccc(Cl)cc2Cl)n[nH]1
IC50 [1]: > 100 µM (inactive)
IC50 [2]: > 100 µM (not active)
IC50 [3]: 0.0684 µM (active)

N=C(N)c1ccc(/N=N/c2c(O)ccc3c2[nH]c2ccccc23)cc1
IC50 (Cysteine protease ATG4B): 5.61 µM (active)
CC50 [4]: 12.5 µM (active)
IC50 (Nonstructural protein 1): 6.65 µM (active)
IC50 (Troponin, cardiac muscle): 8.6 µM (active)
IC50 (Phospholipase A2): 9.6 µM (active)
AC50 [5]: 1.31 µM (active)
CC50 [6]: 67.4 µM (active)
IC50 [7]: 12.7 µM (active)
AC50 [8]: 2.15 µM (active)
IC50 [9]: 2.48 µM (active)

O=C(Cn1c(=O)c2cccn2c2cccnc21)NCCCN1CCN(c2ccccc2)CC1
IC50 [10]: > 32 µM (inactive)
IC50 [11]: > 32 µM (inactive)
IC50 [12]: 1.17 µM (active)
IC50 [13]: 12.7 µM (inactive)
IC50 [14]: > 20 µM (inactive)
IC50 (Mu-type opioid receptor): > 32 µM (inactive)

Cc1cc(-c2ccc(C)c(S(=O)(=O)N3CCN(c4ccccn4)CC3)c2)on1
EC50 [15]: 4.22 µM (active)

c1ccc2c(-c3ccc(OCCN4CCCC4)cc3)c(-c3ccsc3)sc2c1
EC50 (Integrin alpha-4): > 49.4 µM (inactive)

CCCCCC(=O)Nc1cc(Cl)ccc1C(=O)O
IC50 (Hexokinase): > 25 µM (inactive)

CC1(C)C(=O)Nc2ccccc2N1C(=O)Cn1ncc(Cl)c(Cl)c1=O
EC50 [16]: > 120 µM (not active)
EC50 (H4): > 120 µM (not active)
IC50 [17]: 5.11 µM (active)
EC50 [18]: > 60 µM (not active)

From ChEMBL document CHEMBL1201862, “PubChem BioAssay data set” (2004)
